From ChEMBL document CHEMBL5291721, “A preclinical secondary pharmacology resource illuminates target-adverse drug reaction associations of marketed drugs” (Nat Commun, 2023)

Experiments:
[1] = molecular target: Cannabinoid receptor 1 (Homo sapiens, UniProt P21554); type: functional, cell-based
[2] = molecular target: T1, Muscarinic acetylcholine receptor M2 (Homo sapiens, UniProt P08172); type: functional, cell-based
T1 sequence (P08172 whole entry): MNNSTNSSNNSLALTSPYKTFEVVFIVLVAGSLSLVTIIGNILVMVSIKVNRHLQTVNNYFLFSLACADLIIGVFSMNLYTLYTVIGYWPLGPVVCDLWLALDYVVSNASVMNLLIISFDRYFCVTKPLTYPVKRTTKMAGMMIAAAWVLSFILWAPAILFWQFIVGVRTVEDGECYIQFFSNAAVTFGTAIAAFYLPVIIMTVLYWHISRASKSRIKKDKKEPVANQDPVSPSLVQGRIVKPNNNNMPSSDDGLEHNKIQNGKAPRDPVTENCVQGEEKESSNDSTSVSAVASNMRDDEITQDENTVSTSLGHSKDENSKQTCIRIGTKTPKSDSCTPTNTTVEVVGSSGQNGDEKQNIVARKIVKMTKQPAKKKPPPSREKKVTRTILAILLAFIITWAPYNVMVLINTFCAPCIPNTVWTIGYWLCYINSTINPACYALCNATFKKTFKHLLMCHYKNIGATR

[3] = molecular target: Beta-2 adrenergic receptor (Homo sapiens, UniProt P07550); type: functional, cell-based
[4] = molecular target: T2, Gastrin/cholecystokinin type B receptor (Homo sapiens, UniProt P32239)
T2 sequence (P32239 whole entry): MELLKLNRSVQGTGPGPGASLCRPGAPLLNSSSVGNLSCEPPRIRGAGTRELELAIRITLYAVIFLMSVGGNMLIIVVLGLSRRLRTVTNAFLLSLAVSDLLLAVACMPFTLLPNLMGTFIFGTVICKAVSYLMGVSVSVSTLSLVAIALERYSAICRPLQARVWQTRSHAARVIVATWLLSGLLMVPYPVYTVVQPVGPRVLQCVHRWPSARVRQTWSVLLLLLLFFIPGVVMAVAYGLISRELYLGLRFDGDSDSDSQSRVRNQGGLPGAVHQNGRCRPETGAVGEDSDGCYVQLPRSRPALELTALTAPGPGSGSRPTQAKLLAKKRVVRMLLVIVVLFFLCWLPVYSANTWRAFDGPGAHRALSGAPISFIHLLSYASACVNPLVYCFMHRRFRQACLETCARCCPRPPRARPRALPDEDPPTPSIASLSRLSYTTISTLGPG

[5] = molecular target: T3, 5-hydroxytryptamine receptor 1A (Homo sapiens, UniProt P08908); type: functional, cell-based
T3 sequence (P08908 whole entry): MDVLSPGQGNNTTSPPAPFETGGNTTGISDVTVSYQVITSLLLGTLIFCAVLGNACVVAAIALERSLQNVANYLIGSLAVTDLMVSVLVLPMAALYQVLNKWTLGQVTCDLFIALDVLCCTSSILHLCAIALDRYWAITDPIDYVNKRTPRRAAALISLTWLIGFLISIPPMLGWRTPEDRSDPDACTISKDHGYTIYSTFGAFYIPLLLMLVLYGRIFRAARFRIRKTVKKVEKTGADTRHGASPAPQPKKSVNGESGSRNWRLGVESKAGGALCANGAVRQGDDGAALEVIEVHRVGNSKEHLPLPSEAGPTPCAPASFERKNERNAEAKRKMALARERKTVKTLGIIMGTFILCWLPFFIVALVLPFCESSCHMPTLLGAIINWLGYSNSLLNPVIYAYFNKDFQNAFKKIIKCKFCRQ

[6] = molecular target: Bile salt export pump (Homo sapiens, UniProt O95342); type: functional
[7] = molecular target: T4, Alpha-1A adrenergic receptor (Homo sapiens, UniProt P35348); type: functional, cell-based
T4 sequence (P35348 whole entry): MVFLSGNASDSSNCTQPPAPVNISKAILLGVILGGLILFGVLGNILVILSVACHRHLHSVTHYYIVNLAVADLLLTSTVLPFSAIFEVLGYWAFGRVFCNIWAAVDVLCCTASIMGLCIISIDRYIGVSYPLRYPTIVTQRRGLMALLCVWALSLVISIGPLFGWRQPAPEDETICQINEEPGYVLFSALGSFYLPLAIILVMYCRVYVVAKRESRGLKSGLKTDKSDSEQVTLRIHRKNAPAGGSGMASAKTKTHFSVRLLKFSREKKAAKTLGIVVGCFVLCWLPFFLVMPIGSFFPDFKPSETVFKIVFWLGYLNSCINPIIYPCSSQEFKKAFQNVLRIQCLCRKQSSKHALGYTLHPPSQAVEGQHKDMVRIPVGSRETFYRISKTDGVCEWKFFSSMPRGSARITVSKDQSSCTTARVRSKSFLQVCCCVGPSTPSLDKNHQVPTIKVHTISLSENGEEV

[8] = molecular target: T5, Adenosine receptor A3 (Homo sapiens, UniProt P0DMS8)
T5 sequence (P0DMS8 whole entry): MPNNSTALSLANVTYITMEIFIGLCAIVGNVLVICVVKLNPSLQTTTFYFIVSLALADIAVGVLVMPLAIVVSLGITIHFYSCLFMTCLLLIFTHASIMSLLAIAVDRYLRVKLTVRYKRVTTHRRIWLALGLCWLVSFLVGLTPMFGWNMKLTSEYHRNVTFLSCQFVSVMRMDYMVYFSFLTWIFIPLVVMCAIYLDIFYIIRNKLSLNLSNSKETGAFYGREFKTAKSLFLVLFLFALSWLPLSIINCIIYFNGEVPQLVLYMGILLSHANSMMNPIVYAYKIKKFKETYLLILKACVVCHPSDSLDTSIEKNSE
Further: assay procedure not described here.

Sequence of Bile salt export pump (O95342 whole entry): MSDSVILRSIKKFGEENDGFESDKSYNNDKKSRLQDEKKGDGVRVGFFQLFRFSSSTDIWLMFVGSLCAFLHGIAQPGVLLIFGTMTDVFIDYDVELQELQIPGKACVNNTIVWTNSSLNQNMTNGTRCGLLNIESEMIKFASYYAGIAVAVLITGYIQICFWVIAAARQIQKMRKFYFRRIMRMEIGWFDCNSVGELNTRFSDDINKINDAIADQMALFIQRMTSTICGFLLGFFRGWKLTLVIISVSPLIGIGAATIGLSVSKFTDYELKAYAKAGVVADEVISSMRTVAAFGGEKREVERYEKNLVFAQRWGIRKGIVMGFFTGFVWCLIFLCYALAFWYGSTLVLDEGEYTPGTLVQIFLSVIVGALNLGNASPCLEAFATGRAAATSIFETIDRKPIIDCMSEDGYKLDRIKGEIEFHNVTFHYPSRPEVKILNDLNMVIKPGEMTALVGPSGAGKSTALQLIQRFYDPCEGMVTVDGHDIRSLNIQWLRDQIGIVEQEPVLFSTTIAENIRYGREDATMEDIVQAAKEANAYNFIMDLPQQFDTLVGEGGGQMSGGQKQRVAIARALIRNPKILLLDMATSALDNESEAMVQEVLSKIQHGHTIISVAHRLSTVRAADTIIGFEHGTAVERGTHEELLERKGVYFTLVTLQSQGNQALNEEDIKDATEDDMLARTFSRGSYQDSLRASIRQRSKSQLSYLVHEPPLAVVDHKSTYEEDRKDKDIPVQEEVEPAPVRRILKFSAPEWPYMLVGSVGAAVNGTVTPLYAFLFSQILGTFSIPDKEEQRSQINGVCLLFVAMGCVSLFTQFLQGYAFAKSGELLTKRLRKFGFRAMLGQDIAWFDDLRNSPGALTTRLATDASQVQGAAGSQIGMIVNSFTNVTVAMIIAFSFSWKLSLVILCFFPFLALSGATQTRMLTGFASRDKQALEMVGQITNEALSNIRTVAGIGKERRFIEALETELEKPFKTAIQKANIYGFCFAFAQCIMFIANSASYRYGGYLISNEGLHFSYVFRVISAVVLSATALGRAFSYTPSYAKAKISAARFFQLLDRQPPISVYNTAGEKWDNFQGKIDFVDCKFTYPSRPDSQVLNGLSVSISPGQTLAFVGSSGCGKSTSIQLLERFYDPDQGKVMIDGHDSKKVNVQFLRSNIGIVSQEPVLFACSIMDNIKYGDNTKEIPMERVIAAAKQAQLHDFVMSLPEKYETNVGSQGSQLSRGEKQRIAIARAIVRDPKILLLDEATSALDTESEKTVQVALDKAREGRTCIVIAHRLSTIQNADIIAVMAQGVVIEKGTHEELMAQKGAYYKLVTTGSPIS
Sequence of Beta-2 adrenergic receptor (P07550 whole entry): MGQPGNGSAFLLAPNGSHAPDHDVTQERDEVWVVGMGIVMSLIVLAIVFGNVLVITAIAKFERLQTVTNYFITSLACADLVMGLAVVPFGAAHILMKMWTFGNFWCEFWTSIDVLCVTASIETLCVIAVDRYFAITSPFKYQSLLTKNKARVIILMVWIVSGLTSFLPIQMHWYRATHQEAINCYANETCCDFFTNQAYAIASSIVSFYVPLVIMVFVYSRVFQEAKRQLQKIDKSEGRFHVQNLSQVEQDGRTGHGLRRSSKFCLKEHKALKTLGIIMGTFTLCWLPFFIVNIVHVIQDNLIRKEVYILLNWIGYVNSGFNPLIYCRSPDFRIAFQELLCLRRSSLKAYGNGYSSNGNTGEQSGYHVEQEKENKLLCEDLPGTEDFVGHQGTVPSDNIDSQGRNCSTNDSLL
Sequence of Cannabinoid receptor 1 (P21554 whole entry): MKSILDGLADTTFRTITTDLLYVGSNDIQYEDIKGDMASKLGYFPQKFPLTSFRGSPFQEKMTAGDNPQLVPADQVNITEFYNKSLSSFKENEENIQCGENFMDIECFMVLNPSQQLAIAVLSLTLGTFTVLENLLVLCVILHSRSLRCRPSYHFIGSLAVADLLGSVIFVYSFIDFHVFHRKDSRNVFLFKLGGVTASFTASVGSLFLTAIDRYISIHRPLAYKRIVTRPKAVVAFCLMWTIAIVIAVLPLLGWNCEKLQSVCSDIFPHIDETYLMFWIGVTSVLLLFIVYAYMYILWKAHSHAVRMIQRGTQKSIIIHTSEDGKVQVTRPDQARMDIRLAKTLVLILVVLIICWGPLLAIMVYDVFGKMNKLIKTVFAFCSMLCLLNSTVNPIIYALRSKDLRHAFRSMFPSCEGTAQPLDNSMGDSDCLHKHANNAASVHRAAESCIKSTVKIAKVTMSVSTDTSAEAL

SMILES	AC50 [1] [µM]	AC50 [2] [µM]	AC50 [3] [µM]	AC50 [4] [µM]	AC50 [5] [µM]	AC50 [6] [µM]	AC50 [7] [µM]	AC50 [8] [µM]
CCOc1nc2cccc(C(=O)O)c2n1Cc1ccc(-c2ccccc2-c2nnn[nH]2)cc1	> 30	> 30	> 30	> 10	> 30	100	> 30	
CCOc1cc([C@@H](CS(C)(=O)=O)N2C(=O)c3cccc(NC(C)=O)c3C2=O)ccc1OC	> 30	> 30	> 30		> 30	139	> 30	
CC(=O)Nc1ccc(CC(=O)O)cc1 [ACTARIT]	> 30	> 30		> 30	> 30	> 300	> 30	
C[C@H]1CN(C[C@H](Cc2ccccc2)C(=O)NCC(=O)O)CC[C@@]1(C)c1cccc(O)c1 [ALVIMOPAN]						> 300		> 30
CC(C(=O)O)c1ccc2oc(-c3ccc(Cl)cc3)nc2c1 (stereo unspecified) [BENOXAPROFEN]	> 30	> 30		> 10	> 30	120	> 30	
CC1(C)S[C@@H]2[C@H](NC(=O)C(C(=O)O)c3ccccc3)C(=O)N2[C@H]1C(=O)O (stereo partly specified) [CARBENICILLIN]	> 30	> 30	> 30	> 30	> 30	210	> 30	
Cc1nnc(SCC2=C(C(=O)O)N3C(=O)[C@@H](NC(=O)Cn4cnnn4)[C@H]3SC2)s1 [CEFAZOLIN]	> 300	> 300	> 300	> 30	> 300	> 300	> 300	
CC=CC1=C(C(=O)O)N2C(=O)[C@@H](NC(=O)[C@H](N)c3ccc(O)cc3)[C@H]2SC1 [CEFPROZIL]		> 30		> 30	> 30	> 300	> 30	
CC(C)(O/N=C(\C(=O)N[C@@H]1C(=O)N2C(C(=O)[O-])=C(C[n+]3ccccc3)CS[C@H]12)c1csc(N)n1)C(=O)O [CEFTAZIDIME]	> 300	> 300	> 300	> 30	> 300	> 300	> 300	
CCCNC(=O)NS(=O)(=O)c1ccc(Cl)cc1 [CHLORPROPAMIDE]	> 30	> 10	> 30	> 30	> 10	> 300	> 30	
Clc1ccc(Cn2c(CN3CCCC3)nc3ccccc32)cc1 [CLEMIZOLE]	> 30	> 10	> 30		> 30	29	> 30	
CCC(=O)O[C@]1(C(=O)CCl)[C@@H](C)C[C@H]2[C@@H]3CCC4=CC(=O)C=C[C@]4(C)[C@@]3(F)[C@@H](O)C[C@@]21C [CLOBETASOL PROPIONATE]	> 30	> 30	> 30	> 30	> 30	23	> 30	
Cc1nc(Nc2ncc(C(=O)Nc3c(C)cccc3Cl)s2)cc(N2CCN(CCO)CC2)n1 [DASATINIB]	> 30	> 30	> 30	> 30	> 30	22	> 30	
CC(C)Cc1ccc([C@H](C)C(=O)O)cc1 [DEXIBUPROFEN]	> 30	> 30	> 30		> 30	188	> 30	
CC(C(=O)O)c1cccc(Oc2ccccc2)c1 (stereo unspecified) [FENOPROFEN]						> 300		> 30
Cc1onc(-c2c(F)cccc2Cl)c1C(=O)N[C@@H]1C(=O)N2[C@@H]1SC(C)(C)[C@@H]2C(=O)O [FLOXACILLIN]	> 30	> 30	> 30		> 30	50	> 30	
CCCCCCCN(CC)CCCC(O)c1ccc(NS(C)(=O)=O)cc1 (stereo unspecified) [IBUTILIDE]		22		> 30	> 30	> 300	> 30	
CC[C@H](C)C(=O)O[C@H]1C[C@@H](C)C=C2C=C[C@H](C)[C@H](CC[C@@H]3C[C@@H](O)CC(=O)O3)[C@H]21 [LOVASTATIN]	> 30	> 10	> 30	> 30	> 10	27	> 30	
C[N+]1(C)CCCC(OC(=O)C(O)(c2ccccc2)c2ccccc2)C1 (stereo unspecified) [MEPENZOLATE]						> 300		> 30
CC[C@@H](CO)NC(=O)[C@@H]1C=C2c3cccc4c3c(cn4C)C[C@H]2N(C)C1 [METHYSERGIDE]	> 30	> 30	> 30	> 30	0.2	180	0.88	
CN(C)c1ccc(O)c2c1C[C@H]1C[C@H]3[C@H](N(C)C)C(O)=C(C(N)=O)C(=O)[C@@]3(O)C(O)=C1C2=O [MINOCYCLINE]						83		> 30
CN1Cc2c(N)cccc2C(c2ccccc2)C1 (stereo unspecified) [NOMIFENSINE]	> 30	> 30	> 30	> 30	> 30	> 300	> 30	
Cn1cc(C(=O)[C@@H]2CCc3nc[nH]c3C2)c2ccccc21 [RAMOSETRON]	> 30	> 30		> 30	> 30	> 300	> 30	
CN(CCOc1ccc(CC2SC(=O)NC2=O)cc1)c1ccccn1 (stereo unspecified) [ROSIGLITAZONE]	> 30	22		> 30	> 30	1	> 30	
C[N+](C)(C)CCOC(=O)CCC(=O)OCC[N+](C)(C)C [SUXAMETHONIUM]						> 300		> 30
S=P(N1CC1)(N1CC1)N1CC1 [THIOTEPA]	> 30		> 30		> 10	83	> 30	
Cc1ccc(C(=O)c2ccc(CC(=O)O)n2C)cc1 [TOLMETIN]						> 300		> 30
Cc1ccccc1C(=O)Nc1ccc(C(=O)N2CCCC(O)c3cc(Cl)ccc32)c(C)c1 (stereo unspecified) [TOLVAPTAN]						7.87		11
COc1cc(C(=O)NS(=O)(=O)c2ccccc2C)ccc1Cc1cn(C)c2ccc(NC(=O)OC3CCCC3)cc12 [ZAFIRLUKAST]	> 30				> 10	2.28	> 30	
